Test results published in patent EP4745137A1 (Gluetacs Therapeutics (Shanghai) Co., Ltd., priority 2023, dated 2025).

Assays:
Format in all cases: cell-based
Conditions in all cases: 24 hours of compound treatment
[1] = target: T1, WEE1 (Homo sapiens, UniProt P30291+Q96SW2); test: Western-blot assay of substrate protein degradation in hPBMCs, WEE1
T1 construct: endogenous in cells; host or cells: hPBMCs (Milecell Biotechnologies)
Protocol: (§1) After 24 hours of compounds treatment, cells were harvested and lysed in RIPA protein lysate containing protease inhibitors on ice for 30 min, followed by centrifugation. The supernatant was aspirated as the extracted total cell protein. The protein concentration of the supernatant was determined using the conventional BCA (Bicinchoninic Acid) assay. • (2) To the collected supernatant, 5X SDS sample loading buffer was added, followed by denaturation at 95°C for 5 minutes. The denatured samples were then separated by SDS-PAGE electrophoresis on a polyacrylamide gel, transferred onto a nitrocellulose membrane (0.45 µm NC membrane), blocked with blocking buffer at room temperature for 1 hour, and subjected to antibody incubation and development procedures according to the antibody manufacturer's instructions (Cell Signaling Technology Company). […]
(§2) Target protein remaining (%) refers to the percentage of target protein remaining in cells after treatment with protein degrader compounds.
(§3) Calculation method for target protein remaining (%): Use ImageJ software to measure grayscale values of Western blot bands from drug (protein degrader)-treated samples. The grayscale value of drug-treated bands is divided by that of internal control protein bands, and the resulting quotient is normalized to obtain the relative percentage of remaining target protein after protein degrader treatment. Target protein degradation rate(%) = 1−target protein remaining(%). [formula]

[2] = target: T2, IKZF1 (Homo sapiens, UniProt Q13422+Q96SW2); test: Western-blot assay of substrate protein degradation in hPBMCs, IKZF1
T2 construct: endogenous in cells; host or cells: hPBMCs (Milecell Biotechnologies)
T2 sequence (Q13422 whole entry): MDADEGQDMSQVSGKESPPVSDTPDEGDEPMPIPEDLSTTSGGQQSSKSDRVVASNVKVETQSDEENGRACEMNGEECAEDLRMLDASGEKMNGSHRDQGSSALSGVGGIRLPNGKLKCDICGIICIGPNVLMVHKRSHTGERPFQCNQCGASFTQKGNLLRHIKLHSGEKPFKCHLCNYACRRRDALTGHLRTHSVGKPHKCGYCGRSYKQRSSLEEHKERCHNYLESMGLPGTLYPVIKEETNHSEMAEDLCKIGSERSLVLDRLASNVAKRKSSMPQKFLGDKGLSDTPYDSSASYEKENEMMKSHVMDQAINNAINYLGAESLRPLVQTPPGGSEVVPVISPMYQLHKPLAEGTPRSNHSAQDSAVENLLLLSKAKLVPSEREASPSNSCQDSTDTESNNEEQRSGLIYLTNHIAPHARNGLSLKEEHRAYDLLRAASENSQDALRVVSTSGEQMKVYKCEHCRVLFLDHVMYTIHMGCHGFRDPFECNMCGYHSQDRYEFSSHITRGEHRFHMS
T2 sequence (Q96SW2 whole entry): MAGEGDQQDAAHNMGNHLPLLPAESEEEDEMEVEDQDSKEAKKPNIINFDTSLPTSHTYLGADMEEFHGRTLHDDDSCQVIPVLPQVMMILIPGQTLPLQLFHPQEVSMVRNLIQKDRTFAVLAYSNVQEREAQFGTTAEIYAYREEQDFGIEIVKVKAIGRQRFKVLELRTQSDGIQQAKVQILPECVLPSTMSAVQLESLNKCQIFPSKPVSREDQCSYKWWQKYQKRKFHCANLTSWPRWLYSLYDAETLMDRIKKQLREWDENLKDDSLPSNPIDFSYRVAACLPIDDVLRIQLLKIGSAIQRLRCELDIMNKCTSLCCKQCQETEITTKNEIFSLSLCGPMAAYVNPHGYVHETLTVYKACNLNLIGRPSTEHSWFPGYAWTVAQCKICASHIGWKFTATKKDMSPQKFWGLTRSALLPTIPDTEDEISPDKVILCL
T2 sequence (Q16531 whole entry partner): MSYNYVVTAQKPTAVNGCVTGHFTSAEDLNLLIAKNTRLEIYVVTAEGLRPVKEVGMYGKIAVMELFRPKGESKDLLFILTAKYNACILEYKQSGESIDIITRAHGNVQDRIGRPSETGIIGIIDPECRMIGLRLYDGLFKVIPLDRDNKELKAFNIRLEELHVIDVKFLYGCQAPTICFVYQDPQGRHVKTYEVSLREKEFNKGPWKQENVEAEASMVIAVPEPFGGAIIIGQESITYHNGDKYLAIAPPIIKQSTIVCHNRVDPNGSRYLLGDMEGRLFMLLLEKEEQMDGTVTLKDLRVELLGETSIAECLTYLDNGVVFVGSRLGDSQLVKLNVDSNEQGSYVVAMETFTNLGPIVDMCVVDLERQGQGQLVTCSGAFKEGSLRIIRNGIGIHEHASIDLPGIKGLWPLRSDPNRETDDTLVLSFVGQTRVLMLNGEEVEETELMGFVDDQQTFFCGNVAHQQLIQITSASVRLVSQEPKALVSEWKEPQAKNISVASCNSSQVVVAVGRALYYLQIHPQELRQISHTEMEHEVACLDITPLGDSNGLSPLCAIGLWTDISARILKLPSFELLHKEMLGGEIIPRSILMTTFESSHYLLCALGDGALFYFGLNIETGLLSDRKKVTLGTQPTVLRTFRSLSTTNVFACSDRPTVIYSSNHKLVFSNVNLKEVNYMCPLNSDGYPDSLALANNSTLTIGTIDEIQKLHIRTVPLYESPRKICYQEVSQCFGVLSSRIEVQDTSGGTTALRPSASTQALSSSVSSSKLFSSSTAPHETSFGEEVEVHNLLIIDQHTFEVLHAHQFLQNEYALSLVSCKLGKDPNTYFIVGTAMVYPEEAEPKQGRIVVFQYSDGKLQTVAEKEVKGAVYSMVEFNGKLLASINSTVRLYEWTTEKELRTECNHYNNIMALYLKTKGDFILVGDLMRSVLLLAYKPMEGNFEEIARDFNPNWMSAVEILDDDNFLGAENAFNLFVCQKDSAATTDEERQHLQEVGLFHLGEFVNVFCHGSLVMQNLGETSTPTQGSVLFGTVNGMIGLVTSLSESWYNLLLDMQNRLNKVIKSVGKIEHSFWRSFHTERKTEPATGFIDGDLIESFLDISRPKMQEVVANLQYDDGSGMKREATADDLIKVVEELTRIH
Protocol: as §1, §2, §3

[3] = target: T3, IKZF2 (Homo sapiens, UniProt Q96SW2+Q9UKS7); test: Western-blot assay of substrate protein degradation in hPBMCs, IKZF2
T3 construct: endogenous in cells; host or cells: hPBMCs (Milecell Biotechnologies)
T3 sequence (Q9UKS7 whole entry): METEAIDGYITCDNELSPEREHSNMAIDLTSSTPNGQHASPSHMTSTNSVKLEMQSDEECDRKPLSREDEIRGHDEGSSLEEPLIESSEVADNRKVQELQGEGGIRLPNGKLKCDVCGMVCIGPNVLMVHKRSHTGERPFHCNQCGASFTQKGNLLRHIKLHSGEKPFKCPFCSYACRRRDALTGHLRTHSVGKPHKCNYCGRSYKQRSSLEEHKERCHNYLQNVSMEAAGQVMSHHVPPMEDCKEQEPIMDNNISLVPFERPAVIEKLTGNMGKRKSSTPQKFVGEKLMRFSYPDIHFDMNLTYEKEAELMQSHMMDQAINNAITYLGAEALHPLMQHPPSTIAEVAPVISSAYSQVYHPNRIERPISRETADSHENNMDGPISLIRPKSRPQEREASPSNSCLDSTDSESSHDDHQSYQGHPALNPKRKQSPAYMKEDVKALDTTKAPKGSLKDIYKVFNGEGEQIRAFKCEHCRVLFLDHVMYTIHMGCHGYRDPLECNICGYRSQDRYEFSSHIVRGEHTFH
T3 sequence (Q96SW2 whole entry): as the sequence (Q96SW2 whole entry) above
T3 sequence (Q16531 whole entry partner): as the sequence (Q16531 whole entry partner) above
Protocol: as §1, §2, §3

[4] = target: T4, IKZF3 (Homo sapiens, UniProt Q96SW2+Q9UKT9); test: Western-blot assay of substrate protein degradation in hPBMCs, IKZF3
T4 construct: endogenous in cells; host or cells: hPBMCs (Milecell Biotechnologies)
T4 sequence (Q9UKT9 whole entry): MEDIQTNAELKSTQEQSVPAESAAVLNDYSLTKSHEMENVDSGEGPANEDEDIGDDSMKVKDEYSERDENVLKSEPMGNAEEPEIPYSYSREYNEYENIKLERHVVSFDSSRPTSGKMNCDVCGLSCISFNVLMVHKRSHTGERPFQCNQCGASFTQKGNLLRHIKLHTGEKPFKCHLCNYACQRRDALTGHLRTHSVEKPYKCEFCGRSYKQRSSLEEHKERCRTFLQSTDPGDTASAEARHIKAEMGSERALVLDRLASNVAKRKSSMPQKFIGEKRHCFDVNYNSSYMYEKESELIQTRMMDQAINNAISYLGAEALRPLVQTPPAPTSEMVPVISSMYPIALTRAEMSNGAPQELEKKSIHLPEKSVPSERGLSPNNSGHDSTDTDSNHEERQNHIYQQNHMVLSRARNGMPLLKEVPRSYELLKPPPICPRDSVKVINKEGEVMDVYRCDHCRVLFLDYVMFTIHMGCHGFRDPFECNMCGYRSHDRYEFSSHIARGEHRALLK
T4 sequence (Q96SW2 whole entry): as the sequence (Q96SW2 whole entry) above
T4 sequence (Q16531 whole entry partner): as the sequence (Q16531 whole entry partner) above
Protocol: as §1, §2, §3

[5] = target: T5, CK1α (Homo sapiens, UniProt P48729+Q96SW2); test: Western-blot assay of substrate protein degradation in hPBMCs, CK1α
T5 construct: endogenous in cells; host or cells: hPBMCs (Milecell Biotechnologies)
T5 sequence (P48729 whole entry): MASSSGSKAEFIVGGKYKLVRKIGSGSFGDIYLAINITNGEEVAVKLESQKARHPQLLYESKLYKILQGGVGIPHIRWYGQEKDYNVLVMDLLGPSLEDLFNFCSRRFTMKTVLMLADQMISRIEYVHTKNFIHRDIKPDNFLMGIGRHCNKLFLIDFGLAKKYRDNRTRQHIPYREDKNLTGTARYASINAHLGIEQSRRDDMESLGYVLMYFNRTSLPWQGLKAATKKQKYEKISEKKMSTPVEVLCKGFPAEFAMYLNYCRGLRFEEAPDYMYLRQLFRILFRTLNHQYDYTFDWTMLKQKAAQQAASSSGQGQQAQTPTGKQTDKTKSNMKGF
T5 sequence (Q96SW2 whole entry): as the sequence (Q96SW2 whole entry) above
T5 sequence (Q16531 whole entry partner): as the sequence (Q16531 whole entry partner) above
Protocol: as §1, §2, §3

[6] = target: T6, GSPT1 (Homo sapiens, UniProt P15170+Q96SW2); test: Western-blot assay of substrate protein degradation in hPBMCs, GSPT1
T6 construct: endogenous in cells; host or cells: hPBMCs (Milecell Biotechnologies)
Protocol: as §1, §2, §3

[7] = 50 nM and 500 nM tested (concentration behind the class not stated)
[8] = compounds tested at 50 nM and 500 nM (concentration of the table not stated)

T1 sequence (P30291 whole entry): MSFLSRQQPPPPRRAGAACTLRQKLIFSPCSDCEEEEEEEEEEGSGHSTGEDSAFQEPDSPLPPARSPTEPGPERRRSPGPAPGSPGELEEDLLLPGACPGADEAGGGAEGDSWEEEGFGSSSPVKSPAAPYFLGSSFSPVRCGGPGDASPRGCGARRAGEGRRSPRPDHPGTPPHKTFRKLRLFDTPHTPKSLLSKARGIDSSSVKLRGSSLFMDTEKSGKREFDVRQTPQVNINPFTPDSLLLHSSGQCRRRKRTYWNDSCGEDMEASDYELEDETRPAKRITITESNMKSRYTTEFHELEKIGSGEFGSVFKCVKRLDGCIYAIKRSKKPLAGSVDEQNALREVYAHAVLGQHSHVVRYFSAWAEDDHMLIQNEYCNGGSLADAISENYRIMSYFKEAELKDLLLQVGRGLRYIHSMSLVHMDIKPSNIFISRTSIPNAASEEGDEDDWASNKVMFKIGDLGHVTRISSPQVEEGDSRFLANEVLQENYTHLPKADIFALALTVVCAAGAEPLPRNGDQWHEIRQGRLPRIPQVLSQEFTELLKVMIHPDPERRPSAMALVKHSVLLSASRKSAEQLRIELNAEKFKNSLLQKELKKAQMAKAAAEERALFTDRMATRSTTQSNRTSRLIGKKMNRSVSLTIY
T1 sequence (Q96SW2 whole entry): as the sequence (Q96SW2 whole entry) above
T1 sequence (Q16531 whole entry partner): as the sequence (Q16531 whole entry partner) above

SMILES	Weel substrate protein remaining % [1, 7]	IKZF 1 substrate protein remaining % [2, 7]	IKZF2 substrate protein remaining % [3, 7]	IKZF3 substrate protein remaining % [4, 7]	CK1a substrate protein remaining % [5, 7]	GSPT1 substrate protein remaining % [6, 7]	Weel substrate protein remaining % [1, 8]	IKZF 1 substrate protein remaining % [2, 8]	IKZF2 substrate protein remaining % [3, 8]	IKZF3 substrate protein remaining % [4, 8]	CK1a substrate protein remaining % [5, 8]	GSPT1 substrate protein remaining % [6, 8]
O=C1CCC(N2C(=O)c3ccc(CN4CCC(c5cccs5)CC4)cc3C2=O)C(=O)N1 (stereo not drawn) [GT-06224, 2-(2,6-dioxopiperidin-3-yl)-5-((4-(thiophen-2-yl)piperidin-1-yl)methyl)isoindoline-1,3-dione]	A (0% ≤ substrate protein remaining % ≤ 80%)	A (0% ≤ substrate protein remaining % ≤ 80%)	B (80%< substrate protein remaining %≤ 100%)	A (0% ≤ substrate protein remaining % ≤ 80%)	A (0% ≤ substrate protein remaining % ≤ 80%)	A (0% ≤ substrate protein remaining % ≤ 80%)						
O=C1CCC(N2C(=O)c3ccc(CN4CCC(N5CCCc6cc(F)ccc65)CC4)cc3C2=O)C(=O)N1 (stereo not drawn) [GT-06234, 2-(2,6-dioxopiperidin-3-yl)-5-((4-(6-fluoro-3,4-dihydroquinolin-1(2H)-yl)piperidin-1-yl)methyl)isoindoline-1,3-dione]							B (80%< substrate protein remaining %≤ 100%)	B (80%< substrate protein remaining %≤ 100%)	B (80%< substrate protein remaining %≤ 100%)	B (80%< substrate protein remaining %≤ 100%)	B (80%< substrate protein remaining %≤ 100%)	A (0% ≤ substrate protein remaining % ≤ 80%)
O=C1CCC(N2C(=O)c3ccc(CN4CCC(N5CCOc6cc(F)ccc65)CC4)cc3C2=O)C(=O)N1 (stereo not drawn) [GT-06235, 2-(2,6-dioxopiperidin-3-yl)-5-((4-(7-fluoro-2,3-dihydro-4H-benzo[b][1,4]oxazin-4-yl)piperidin-1-yl)methyl)isoindoline-1,3-dione]							B (80%< substrate protein remaining %≤ 100%)	B (80%< substrate protein remaining %≤ 100%)	B (80%< substrate protein remaining %≤ 100%)	B (80%< substrate protein remaining %≤ 100%)	B (80%< substrate protein remaining %≤ 100%)	A (0% ≤ substrate protein remaining % ≤ 80%)
O=C1CCC(N2C(=O)c3ccc(CN4CCC(N5C(=O)COc6cc(F)ccc65)CC4)cc3C2=O)C(=O)N1 (stereo not drawn) [GT-06236, 2-(2,6-dioxopiperidin-3-yl)-5-((4-(7-fluoro-3-oxo-2,3-dihydro-4H-benzo[b][1,4]oxazin-4-yl)piperidin-1-yl)methyl)isoindoline-1,3-dione]							B (80%< substrate protein remaining %≤ 100%)	B (80%< substrate protein remaining %≤ 100%)	A (0% ≤ substrate protein remaining % ≤ 80%)	B (80%< substrate protein remaining %≤ 100%)	B (80%< substrate protein remaining %≤ 100%)	A (0% ≤ substrate protein remaining % ≤ 80%)
O=C1CCC(N2C(=O)c3ccc(CN4CCC(C5CCOc6cc(F)ccc65)CC4)cc3C2=O)C(=O)N1 (stereo not drawn) [GT-06237, 2-(2,6-dioxopiperidin-3-yl)-5-((4-(7-fluorochroman-4-yl)piperidin-1-yl)methyl)isoindoline-1,3-dione]							B (80%< substrate protein remaining %≤ 100%)	B (80%< substrate protein remaining %≤ 100%)	B (80%< substrate protein remaining %≤ 100%)	B (80%< substrate protein remaining %≤ 100%)	B (80%< substrate protein remaining %≤ 100%)	A (0% ≤ substrate protein remaining % ≤ 80%)
Cc1cscc1N1CCN(Cc2ccc3c(c2)C(=O)N(C2CCC(=O)NC2=O)C3=O)CC1 (stereo not drawn) [GT-06260, 2-(2,6-dioxopiperidin-3-yl)-5-((4-(4-methylthiophen-3-yl)piperazin-1-yl)methyl)isoindoline-1,3-dione]	B (80%< substrate protein remaining %≤ 100%)	B (80%< substrate protein remaining %≤ 100%)	B (80%< substrate protein remaining %≤ 100%)	B (80%< substrate protein remaining %≤ 100%)	B (80%< substrate protein remaining %≤ 100%)	A (0% ≤ substrate protein remaining % ≤ 80%)						
O=C1CCC(N2C(=O)c3ccc(CN4CC=C(c5ccsc5)CC4)cc3C2=O)C(=O)N1 (stereo not drawn) [GT-06261, 2-(2,6-dioxopiperidin-3-yl)-5-((4-(thiophen-3-yl)-3,6-dihydropyridin-1(2H)-yl)methyl)isoindoline-1,3-dione]	A (0% ≤ substrate protein remaining % ≤ 80%)	A (0% ≤ substrate protein remaining % ≤ 80%)	A (0% ≤ substrate protein remaining % ≤ 80%)	A (0% ≤ substrate protein remaining % ≤ 80%)	A (0% ≤ substrate protein remaining % ≤ 80%)	A (0% ≤ substrate protein remaining % ≤ 80%)						
Cc1ccc(C2CCN(Cc3ccc4c(c3)C(=O)N(C3CCC(=O)NC3=O)C4=O)CC2)s1 (stereo not drawn) [GT-06262, 2-(2,6-dioxopiperidin-3-yl)-5-((4-(5-methylthiophen-2-yl)piperidin-1-yl)methyl)isoindoline-1,3-dione]	B (80%< substrate protein remaining %≤ 100%)	B (80%< substrate protein remaining %≤ 100%)	A (0% ≤ substrate protein remaining % ≤ 80%)	B (80%< substrate protein remaining %≤ 100%)	A (0% ≤ substrate protein remaining % ≤ 80%)	A (0% ≤ substrate protein remaining % ≤ 80%)						
O=C1CCC(N2C(=O)c3ccc(CN4CCC(c5cccc6c(F)cccc56)CC4)cc3C2=O)C(=O)N1 (stereo not drawn) [GT-06263, 2-(2,6-dioxopiperidin-3-yl)-5-((4-(5-fluoronaphthalen-1-yl)piperidin-1-yl)methyl)isoindoline-1,3-dione]							B (80%< substrate protein remaining %≤ 100%)	B (80%< substrate protein remaining %≤ 100%)	B (80%< substrate protein remaining %≤ 100%)	A (0% ≤ substrate protein remaining % ≤ 80%)	A (0% ≤ substrate protein remaining % ≤ 80%)	A (0% ≤ substrate protein remaining % ≤ 80%)
O=C1CCC(N2C(=O)c3ccc(CN4CC=C(c5cccc6c(F)cccc56)CC4)cc3C2=O)C(=O)N1 (stereo not drawn) [GT-06264, 2-(2,6-dioxopiperidin-3-yl)-5-((4-(5-fluoronaphthalen-1-yl)-3,6-dihydropyridin-1(2H)-yl)methyl)isoindoline-1,3-dione]							A (0% ≤ substrate protein remaining % ≤ 80%)	A (0% ≤ substrate protein remaining % ≤ 80%)	A (0% ≤ substrate protein remaining % ≤ 80%)	A (0% ≤ substrate protein remaining % ≤ 80%)	A (0% ≤ substrate protein remaining % ≤ 80%)	A (0% ≤ substrate protein remaining % ≤ 80%)
O=C1CCC(N2C(=O)c3ccc(CN4CCC(c5ccnc6cc(F)ccc56)CC4)cc3C2=O)C(=O)N1 (stereo not drawn) [GT-06265, 2-(2,6-dioxopiperidin-3-yl)-5-((4-(7-fluoroquinolin-4-yl)piperidin-1-yl)methyl)isoindoline-1,3-dione]							B (80%< substrate protein remaining %≤ 100%)	B (80%< substrate protein remaining %≤ 100%)	A (0% ≤ substrate protein remaining % ≤ 80%)	B (80%< substrate protein remaining %≤ 100%)	B (80%< substrate protein remaining %≤ 100%)	B (80%< substrate protein remaining %≤ 100%)
O=C1CCC(N2C(=O)c3ccc(CN4CCC(c5cccc6cnccc56)CC4)cc3C2=O)C(=O)N1 (stereo not drawn) [GT-06266, 2-(2,6-dioxopiperidin-3-yl)-5-((4-(isoquinolin-5-yl)piperidin-1-yl)methyl)isoindoline-1,3-dione]							B (80%< substrate protein remaining %≤ 100%)	B (80%< substrate protein remaining %≤ 100%)	A (0% ≤ substrate protein remaining % ≤ 80%)	B (80%< substrate protein remaining %≤ 100%)	B (80%< substrate protein remaining %≤ 100%)	B (80%< substrate protein remaining %≤ 100%)
